Data as given in US20100113504A1, “AMIDE COMPOUNDS AND THEIR USE AS ANTITUMOR AGENTS” (SIGMA-TAU INDUSTRIE FARMACEUTICHE RIUNITE S.P.A., priority 2007, published 2010).
Read-outs that look alike come from different tables or passages of the source.

Tests used:
[1] = rcm bond, Grubbs II, CH2Cl2, 1.0 mM
[2] = tested on: HCT-116 human colon carcinoma cells; test: Cytotoxicity (sulphorodamine B) on HCT-116 tumor cells; type: cell-based; settings: Homo sapiens, HCT-116 cells, 24 h treatment, then 48 h in drug-free medium, read-out: IC50 ± SD, HCT-116
Procedure: (§1) Tumor cells were seeded in 96-well tissue culture plates at approximately 10% confluence and were allowed to attach and recover for at least 24 h. […] The plates were incubated for 24 h at 37° C. At the end of the treatment, for NB4 tumor cells in suspension, the procedure was performed as follows: medium culture was removed by centrifugation of the plates at 1600×g for 10 min and the surnatant was removed. 250 μl PBS were added, then the plates were centrifuged at 1600×g for 10 min, the surnatant was removed. […] The plates were centrifuged again at 1600×g for 10 min, the medium culture was removed and 200 μl PBS and 50 μl of cold 80% TCA were added. The plates were incubated on ice for at least 1 h. TCA was removed, the plates were washed 3 times for immersion in distilled-water and dried before on paper, then in a thermostater at 40° C. Subsequently 200 μl of 0.4% sulphorodamine B in 1% acetic acid were added. The plates were incubated at room temperature for other 30 min. Sulphorodamine B was removed, the plates were washed for immersion in 1% acetic acid for 3 times, then they were washed and dried on paper. 200 μl Tris 10 mM were added, the plates were kept under stirring for 20 min. The survival cell was determined as optical density by a Multiskan spectrofluorimeter at 540 nm. […] Also the last day of the assay, the surnatant was removed without centrifugation.
(§2) The amount of cells killed was calculated as the percentage decrease in sulphorodamine B binding compared with control cultures.

[3] = tested on: NB4, NCI-H460 and HCT-116 tumor cells; test: Cytotoxicity summarised over the three tumor cell lines; type: cell-based; settings: Homo sapiens; mean over NB4, NCI-H460, HCT-116; 24 h of treatment
Procedure: as §1, §2

[4] = tested on: NCI-H460 non-small cell carcinoma cells; test: Cytotoxicity (sulphorodamine B) on NCI-H460 tumor cells; type: cell-based; settings: Homo sapiens, 24 h treatment, then 48 h in drug-free medium, read-out: IC50 ± SD, NCI-H460
Procedure: as §1, §2

[5] = tested on: NB4 human promyelocitic leukaemia; test: Cytotoxicity (sulphorodamine B) on NB4 tumor cells; type: cell-based; settings: Homo sapiens, NB-4, 24 h treatment, then 48 h in drug-free medium, read-out: IC50 ± SD, NB4
Procedure: To test the effects of the compounds on cell growth, NB4 human promyelocitic leukaemia, NCI-H460 non-small cell carcinoma cells and HCT-116 human colon carcinoma cells were used. NB4 and NCI-H460 tumor cells were grown RPMI 1640 containing 10% fetal bovine serum (GIBCO), whereas HCT-116 tumor cells were grown in McCoy's 5A containing 10% fetal bovine serum (GIBCO).
Tumor cells were seeded in 96-well tissue culture plates at approximately 10% confluence and were allowed to attach and recover for at least 24 h. […] The plates were incubated for 24 h at 37° C. At the end of the treatment, for NB4 tumor cells in suspension, the procedure was performed as follows: medium culture was removed by centrifugation of the plates at 1600×g for 10 min and the surnatant was removed. 250 μl PBS were added, then the plates were centrifuged at 1600×g for 10 min, the surnatant was removed. 200 μl/well of medium culture RPMI 1640 containing 10% FCS were added and the plates were incubated at 37° C. for other 48 h. The plates were centrifuged again at 1600×g for 10 min, the medium culture was removed and 200 μl PBS and 50 μl of cold 80% TCA were added. The plates were incubated on ice for at least 1 h. TCA was removed, the plates were washed 3 times for immersion in distilled-water and dried before on paper, then in a thermostater at 40° C. Subsequently 200 μl of 0.4% sulphorodamine B in 1% acetic acid were added. The plates were incubated at room temperature for other 30 min. Sulphorodamine B was removed, the plates were washed for immersion in 1% acetic acid for 3 times, then they were washed and dried on paper. 200 μl Tris 10 mM were added, the plates were kept under stirring for 20 min. The survival cell was determined as optical density by a Multiskan spectrofluorimeter at 540 nm. For the tumor cells in adhesion (NCI-H460 and HCT-116), the procedure was as above mentioned, except that the at the end of the treatment, the plates were washed by remotion of the surnatant and addition of PBS 3 times and not by centrifugation. Also the last day of the assay, the surnatant was removed without centrifugation.
as §2

[6] = rcm bond

| Molecule | IC50 [2] [nM] | IC50 [3] [nM] | IC50 [4] [nM] | IC50 [5] [nM] | further results |
| --- | --- | --- | --- | --- | --- |
| COC(=O)CCCCCC1OCC=CCC(c2ccc(OC)cc2)Oc2ccccc2NC1=O (racemic) | – | – | – | – | ring closure, isolated yield ([1]; from C=CCOC(CCCCCC(=O)OC)C(=O)Nc1ccccc1OC(CC=C)c1ccc(OC)cc1, 12-membered ring): 45% |
| 7-(S)-Allyl-tert-butoxycarbonylamino)-7-(2-hex-5-enyloxyphenylcarbamoyl)heptanoic acid methyl ester | – | – | – | – | ring closure, isolated yield ([1]; the molecule shown is the open-chain precursor, 14-membered ring): 82% |
| COC(=O)CCCCCC1OCC=Cc2cc(cc(OC)c2)COc2ccccc2NC1=O (racemic) | – | – | – | – | ring closure, isolated yield ([1]; from C=CCOC(CCCCCC(=O)OC)C(=O)Nc1ccccc1OCc1cc(C=C)cc(OC)c1, 14-membered ring): 52% |
| COc1ccc(NC(=O)C(CCCCCC(=O)NO)OCc2ccccc2)cc1 (racemic) [Compound 9l, (±)-2-Benzyloxyoctanedioic acid 8-hydroxyamide 1-[(4-methoxyphenyl)-amide]] | 500 ± 60 | < 1000 | 1000 ± 90 | 200 ± 20 | – |
| COC(=O)CCCCCC1OCC=CCCCOc2ccncc2NC1=O (racemic) | – | – | – | – | ring closure, yield of all isomers ([6]; from C=CCCCOc1ccncc1NC(=O)C(CCCCCC(=O)OC)OCC=C): 45%; ring closure, isolated yield ([1]; from C=CCCCOc1ccncc1NC(=O)C(CCCCCC(=O)OC)OCC=C, 13-membered ring): 45% |
| Cc1ccc(COC(CCCCCC(=O)NO)C(=O)Nc2ccccc2)cc1 (racemic) [Compound 9g, (±)-2-(4-Methylbenzyloxy)octanedioic acid 8-hydroxyamide 1-phenylamide] | 300 ± 9 | < 1000 | 600 ± 10 | 100 ± 10 | – |
| COc1cccc(COC(CCCCCC(=O)NO)C(=O)Nc2ccccc2)c1 (racemic) [Compound 9h, (±)-2-(3-Methoxybenzyloxy)octanedioic acid 8-hydroxyamide 1-phenylamide] | 600 ± 100 | < 1000 | 600 ± 30 | 200 ± 7 | – |
| COC(=O)CCCCC[C@H]1C(=O)Nc2ccccc2OCCCCC=CCN1C(=O)OC(C)(C)C | – | – | – | – | ring closure, yield of all isomers ([6]; from C=CCCCCOc1ccccc1NC(=O)[C@H](CCCCCC(=O)OC)N(CC=C)C(=O)OC(C)(C)C): 82% |
| COc1cc(COC(CCCCCC(=O)NO)C(=O)Nc2ccccc2)cc(OC)c1 (racemic) [Compound 9j, (±)-2-(3,5-Dimethoxybenzyloxy)octanedioic acid 8-hydroxyamide 1-phenylamide] | 300 ± 8 | < 1000 | 400 ± 70 | 50 ± 5 | – |
| 7-(S)-Allyl-tert-butoxycarbonylamino)-7-(2-pent-4-enyloxyphenylcarbamoyl)heptanoic acid methyl ester | – | – | – | – | ring closure, isolated yield ([1]; the molecule shown is the open-chain precursor, 13-membered ring): 84% |
| COC(=O)CCCCC[C@H]1C(=O)Nc2ccccc2OCCCC=CCN1C(=O)OC(C)(C)C | – | – | – | – | ring closure, yield of all isomers ([6]; from C=CCCCOc1ccccc1NC(=O)[C@H](CCCCCC(=O)OC)N(CC=C)C(=O)OC(C)(C)C): 84% |
| O=C(CCCCCC(OCc1cccc(Oc2ccccc2)c1)C(=O)Nc1ccccc1)NO (racemic) [Compound 9k, (±)-2-(3-Phenoxybenzyloxy)-octanedioic acid 8-hydroxyamide 1-phenylamide] | 700 ± 80 | < 1000 | 700 ± 40 | 200 ± 9 | – |
| O=C(CCCCCC(OCc1ccc(Br)cc1)C(=O)Nc1ccccc1)NO (racemic) [Compound 9f, (±)-2-(4-Bromobenzyloxy)octanedioic acid 8-hydroxyamide 1-phenylamide] | 300 ± 50 | < 1000 | 500 ± 40 | 60 ± 4 | – |
